Values joined by “and” are separate entries in the source; they are usually repeats but may differ in a detail not shown here. Equal values may be shown once.
Test system: HSV-2 strain G
Assay: Therapeutic activity upon guinea pig HSV-2 genital herpes model (vaginal lesion score)
Format: in vivo
Details: oral, twice a day, dose inhibiting 50% of average vaginal lesion score of placebo group at 9 days after infection, Hartley female guinea pig; for ED50: Human alphaherpesvirus 2, in Cavia porcellus, started after development of vaginal lesions (day 4 to 8 after infection), read-out: Lesion inhibitory activity (ED50; mg/kg) (4 to 8 days of administration after infection); for Comparative test (administration before the development of lesions) (ED50; mg/kg) (0 to 4 days of administration after infection): started 3 hours after HSV-2 infection until 4 days after infection
Protocol: In vivo activity of the pharmaceutical composition of the present invention was tested using an HSV-2 infected guinea pig vagina genital herpes model in reference to the method of L. Stanberry et al. (Journal of Infectious Disease, 1982, 146, 397-404). An absorbent cotton swab was impregnated with an HSV-2 virus suspension (HSV-2 strain G 1.25×10^5 PFU/ml) and inserted into the vagina of a Hartley female guinea pig (4 weeks of age) under diethyl ether anesthesia, thereby infecting it with HSV-2. Vagina lesions and general conditions caused by the HSV-2 infection were scored based on the following 6 steps and evaluated every day from the infected day (0 day) to 9 days after the infection.
Score 1: formation of approximately 1 or 2 small blisters which can be observed with the naked eye
Score 2: formation of blisters in 10 to 50% per vaginal visible area
Score 3: formation of blisters in 50 to 100% per vaginal visible area
Score 4: formation of ulcers in 10 to 50% per vaginal visible area
Score 5: formation of ulcers in 50 to 100% per vaginal visible area
Score 6: paralysis of hind legs or death
Only guinea pigs in which the vaginal lesion score was judged to be 1 or 2 and development of lesions therefore was found were selected after the development of vaginal lesions by HSV-2 infection, namely 4 days after the infection, their grouping was carried out in such a manner that average values of the scores became even, and then administration of each compound to be tested was started. Each compound to be tested was made into a methyl cellulose suspension and orally administered twice a day for 5 days of from the 4th day to 8th day after the infection. Additionally, in order to compare degrees of the therapeutic effect due to difference in the administration starting period, a comparative test was simultaneously carried out in which the administration was started before the development of vaginal lesions (3 hours after the HSV-2 infection) and the administration was carried out in the same manner until 4 days after the infection. Each test was carried out using 10 animals per group of the guinea pigs and using VCV as the comparative compound.
Regarding the average vaginal lesion score of 9 days after the HSV-2 infection, the dose of each compound to be tested which inhibits 50% of the score of the placebo administration group (ED50 value; mg/kg, twice a day) was calculated, with the results shown in the following table.

Row | SMILES | ED50 [mg/kg] | Comparative test (administration before the development of lesions) (ED50; mg/kg) (0 to 4 days of administration after infection)
1 | Cc1ccc(N(CC(=O)Nc2ccc(-c3cocn3)cc2)C(=O)C2CCS(=O)(=O)CC2)cc1 [Preparation 2, N-(4-methylphenyl)-N-(2-{[4-(1,3-oxazol-4-yl)phenyl]amino}-2-oxoethyl)tetrahydro-2H-thiopyran-4-carboxamide 1,1-dioxide] | 3.1 | 1.3 mg/kg
2 | Cc1cccc(C)c1N(CC(=O)Nc1ccc(-c2ncon2)cc1)C(=O)C1CCS(=O)(=O)CC1 [Preparation 27, N-(2,6-dimethylphenyl)-N-(2-{[4-(1,2,4-oxadiazol-3-yl)phenyl]amino}-2-oxoethyl)tetrahydro-2H-thiopyran-4-carboxamide 1,1-dioxide] | 2.5 | 1.2 mg/kg
3 | CC(C)[C@H](N)C(=O)OCCOCn1cnc2c(=O)[nH]c(N)nc21 [VCV, valacyclovir, reference compound] | ≥ 300 | 117 mg/kg and 50 mg/kg
